US8389739B1, “Modulators of retinoid-related orphan receptor gamma” (Orphagen Pharmaceuticals, priority 2006, dated 2013)
Read-outs that look alike come from different tables or passages of the source.

How the values were obtained:
Assay in all cases: Crossreactive receptor transcriptional assay (Gal4 hybrid)
Format in all cases: cell-based
[1] = biological target: T1, hAR (androgen receptor) (Homo sapiens, UniProt P10275)
T1 construct: 646-919; expressed in transfected cells; host or cells: CHO cells, transient transfection
T1 sequence (P10275 647-920): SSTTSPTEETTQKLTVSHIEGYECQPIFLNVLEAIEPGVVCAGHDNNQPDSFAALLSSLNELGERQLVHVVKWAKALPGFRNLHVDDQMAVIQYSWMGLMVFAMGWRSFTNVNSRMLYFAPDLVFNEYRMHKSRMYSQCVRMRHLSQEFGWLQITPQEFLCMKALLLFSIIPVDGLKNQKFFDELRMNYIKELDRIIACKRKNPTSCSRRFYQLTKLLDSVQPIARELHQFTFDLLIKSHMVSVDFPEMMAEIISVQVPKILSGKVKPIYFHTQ
Protocol: (§1) A firefly luciferase reporter gene for Gal4 DBD hybrid receptors, such as Gal4-RORγ, contains five copies of the Gal4 17-mer response element in its promoter and the coding sequence for firefly luciferase (pG5-luc, Promega). CHO (Chinese Hamster Ovary) cells were cultured in Ham's F12 medium supplemented with 10% fetal calf serum (Gemini Biologicals), 10 μg/ml penicillin and streptomycin, and were maintained in a humidified 37° C. incubator (Thermo Electron, Steri-Cycle) with 5% CO2. 24 hours before transfection, cells were plated in T175 flasks (5×10^6 cells/flask) or T75 flasks (1.7×10^6 cells/flask). Transient transfection of CHO cells was performed using TransIT-CHO reagents (Minis, Madison, Wis.) with a mixing ratio of 2:6:1 between plasmid DNA (in μg), TransIT-CHO (in μl) and CHO-mojo (in μl).
(§2) Plates are maintained at 37° C. in a humidified atmosphere with 7% CO2 overnight. Four (4) hours after cell seeding, compounds dissolved in DMSO at 10 mM were added to cells at final concentrations of 20 micromolar (μM) to 20 nanomolar (nM) in 0.2% DMSO in triplicate plates. Approximately 40 hours later, cytotoxicity in the assay well was characterized by addition of the dye resazurin (O'Brien, Wilson et al. 2000) to a final concentration of 3 μM. […] Percent viability was determined as 2 hour fluorescence, minus background at t=0 hours, normalized to DMSO controls. For detection of luciferase activity, media was removed from plates after the measurement of resazurin conversion, and SteadyLite luciferase reagent (Perkin-Elmer) was added (30 μl/well). Luminescence is detected with a Victor 2-V plate reader (Perkin-Elmer) and normalized to luciferase activity of DMSO control wells alone.

[2] = biological target: T2, hFXR (farnesoid X receptor) (Homo sapiens, UniProt Q96RI1)
T2 construct: 192-473; expressed in transfected cells; host or cells: CHO cells, transient transfection
T2 sequence (Q96RI1 192-472 isoform Q96RI1-2): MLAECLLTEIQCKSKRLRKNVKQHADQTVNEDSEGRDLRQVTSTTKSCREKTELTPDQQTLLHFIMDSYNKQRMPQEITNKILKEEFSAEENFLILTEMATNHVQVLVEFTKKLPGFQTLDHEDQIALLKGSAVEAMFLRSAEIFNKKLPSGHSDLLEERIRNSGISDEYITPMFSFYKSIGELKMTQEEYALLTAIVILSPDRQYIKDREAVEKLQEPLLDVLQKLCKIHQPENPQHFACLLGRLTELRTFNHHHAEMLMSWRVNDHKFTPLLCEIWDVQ
Protocol: as §1, §2

[3] = biological target: T3, hPPARγ (Homo sapiens, UniProt P37231)
T3 construct: 175-477; expressed in transfected cells; host or cells: CHO cells, transient transfection
T3 sequence (P37231 175-477 isoform P37231-2): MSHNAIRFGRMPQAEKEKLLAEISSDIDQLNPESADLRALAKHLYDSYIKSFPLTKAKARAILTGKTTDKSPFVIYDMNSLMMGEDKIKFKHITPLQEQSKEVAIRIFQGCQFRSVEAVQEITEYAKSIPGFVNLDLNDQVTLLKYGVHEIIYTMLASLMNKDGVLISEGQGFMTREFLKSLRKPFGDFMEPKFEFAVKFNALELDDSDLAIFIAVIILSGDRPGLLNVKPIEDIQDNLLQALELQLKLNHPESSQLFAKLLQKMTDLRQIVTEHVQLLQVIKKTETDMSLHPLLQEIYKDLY
Protocol: as §1, §2

[4] = biological target: T4, hRARα (retinoic acid receptor alpha) (Homo sapiens, UniProt P10276)
T4 construct: 156-462; expressed in transfected cells; host or cells: CHO cells, transient transfection
T4 sequence (P10276 156-462): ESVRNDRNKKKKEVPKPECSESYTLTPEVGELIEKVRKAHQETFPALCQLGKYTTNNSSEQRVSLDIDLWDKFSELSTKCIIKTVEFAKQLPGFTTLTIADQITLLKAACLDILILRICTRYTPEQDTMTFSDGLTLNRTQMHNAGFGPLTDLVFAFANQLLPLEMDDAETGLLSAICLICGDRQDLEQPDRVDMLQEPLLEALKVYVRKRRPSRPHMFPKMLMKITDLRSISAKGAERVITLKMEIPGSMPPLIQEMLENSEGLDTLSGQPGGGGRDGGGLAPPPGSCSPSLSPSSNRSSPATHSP
Protocol: as §1, §2

[5] = biological target: T5, hRXRα (retinoid X receptor alpha) (Homo sapiens, UniProt P19793)
T5 construct: 203-462; expressed in transfected cells; host or cells: CHO cells, transient transfection
T5 sequence (P19793 203-462): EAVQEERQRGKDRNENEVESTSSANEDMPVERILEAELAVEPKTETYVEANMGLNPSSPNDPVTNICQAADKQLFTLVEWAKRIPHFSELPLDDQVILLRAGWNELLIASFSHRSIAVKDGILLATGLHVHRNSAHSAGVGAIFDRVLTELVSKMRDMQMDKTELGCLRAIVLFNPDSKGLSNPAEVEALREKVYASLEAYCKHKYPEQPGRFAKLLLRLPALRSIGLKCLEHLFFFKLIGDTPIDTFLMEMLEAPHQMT
Protocol: as §1, §2

[6] = biological target: T6, mGR (glucocorticoid receptor) (Mus musculus, UniProt P06537)
T6 construct: 524-793; expressed in transfected cells; host or cells: CHO cells, transient transfection
T6 sequence (P06537 524-793 isoform P06537-2): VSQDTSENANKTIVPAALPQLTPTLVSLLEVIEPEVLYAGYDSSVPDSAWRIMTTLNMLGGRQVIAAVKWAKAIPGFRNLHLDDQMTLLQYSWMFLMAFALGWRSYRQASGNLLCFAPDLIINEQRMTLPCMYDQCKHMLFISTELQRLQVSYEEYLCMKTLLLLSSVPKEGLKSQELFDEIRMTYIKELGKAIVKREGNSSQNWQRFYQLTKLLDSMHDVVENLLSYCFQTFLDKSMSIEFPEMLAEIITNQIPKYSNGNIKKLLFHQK
Protocol: as §1, §2

[7] = Table 6, read-out: Potency (EC50) at hAR
[8] = Table 6, read-out: Potency (EC50) at hFXR
[9] = Table 6, read-out: Potency (EC50) at hPPARγ
[10] = Table 6, read-out: Potency (EC50) at hRARα
[11] = Table 6, read-out: Potency (EC50) at hRXRα
[12] = Table 6, read-out: Potency (EC50) at mGR

EC50 [1, 7] [µM] | EC50 [2, 8] [µM] | EC50 [3, 9] [µM] | EC50 [4, 10] [µM] | EC50 [5, 11] [µM] | EC50 [6, 12] [µM] | Compound | EC50 [1] [µM] | EC50 [2] [µM] | EC50 [3] [µM] | EC50 [4] [µM] | EC50 [5] [µM] | EC50 [6] [µM]
> 10 | > 10 | > 10 | > 10 | > 10 | > 10 | COc1c(C=NNc2nc(N3CCCCC3)nc(N3CCCCC3)n2)cccc1[N+](=O)[O-] [OR-2161, N-(4,6-Di-piperidin-1-yl-[1,3,5]triazin-2-yl)-N′-(2-methoxy-3-nitro-benzylidene)-hydrazine] |  |  |  |  |  | 
> 10 |  | > 10 | > 10 | > 10 | > 10 | O=S(=O)(c1ccccc1)N(CC(F)(F)F)c1ccc(C(O)(C(F)(F)F)C(F)(F)F)cc1 [Compound T0901317, N-(2,2,2-Trifluoro-ethyl)-N-[4-(2,2,2-trifluoro-1-hydroxy-1-trifluoromethyl-ethyl)-phenyl]-benzenesulfonamide, reference compound] |  |  |  |  |  | 
> 10 | > 10 | > 10 | > 10 | > 10 | > 10 | CCN(c1ccc(C(O)(C(F)(F)F)C(F)(F)F)cc1)S(=O)(=O)c1ccc([N+](=O)[O-])cc1 [OR-1050, N-Ethyl-4-nitro-N-[4-(2,2,2-trifluoro-1-hydroxy-1-trifluoromethyl-ethyl)-phenyl]-benzenesulfonamide] |  |  |  |  |  | 
 |  |  |  |  |  | C[C@@H]1CC[C@@]2(OC1)O[C@H]1C[C@H]3[C@@H]4CC[C@H]5C[C@@H](O)CC[C@]5(C)[C@H]4C[C@@H](O)[C@]3(C)[C@H]1[C@@H]2C [OR-885, 5α,20α, 22α, 25D-SPIROSTAN-3β, 12β-DIOL] | > 10 | > 10 | > 10 | > 10 | > 10 | > 10
> 10 | > 10 | > 10 | > 10 | > 10 | > 10 | CCn1c(CNc2ccc(Cl)cc2)nnc1SCC(=O)Nc1cccc2ccccc12 [OR-133008, 2-{5-[(4-Chloro-phenylamino)-methyl]-4-ethyl-4H-[1,2,4]triazol-3-ylsulfanyl}-N-naphthalen-1-yl-acetamide] |  |  |  |  |  | 

Compound | EC50 [1, 7] [µM] | EC50 [2, 8] [µM] | EC50 [3, 9] [µM] | EC50 [4, 10] [µM] | EC50 [5, 11] [µM] | EC50 [6, 12] [µM] | EC50 [1] [µM] | EC50 [2] [µM] | EC50 [3] [µM] | EC50 [4] [µM] | EC50 [5] [µM] | EC50 [6] [µM]
COC(C)CCC(C)C1CCC2C3CC(O)C4CC(O)CCC4(C)C3CCC12C (centres unmarked) [OR-12872, 17-(4-Methoxy-1-methyl-pentyl)-10,13-dimethyl-hexadecahydro-cyclopenta[a]phenanthrene-3,6-diol] | > 10 | > 10 | > 10 | > 10 | > 10 | > 10 |  |  |  |  |  | 
CC(=O)O[C@H]1CC[C@@]2(C)C(CC[C@]3(C)C2C(=O)C=C2C4[C@@H](C)[C@H](C)CC[C@]4(C(=O)O)CC[C@]23C)C1(C)C (stereo in doubt) [OR-13571, 10-Acetoxy-1,2,6a,6b,9,9,12a-heptamethyl-13-oxo-1,3,4,5,6,6a,6b,7,8,8a,9,10,11,12,12a,12b,13,14b-octadecahydro-2H-picene-4a-carboxylic acid] | > 10 | > 10 | > 10 | > 10 | > 10 | > 10 |  |  |  |  |  | 
